From patent publication US20020173036A1, “Cell line and method of making and using same” (priority 2001, published 2002)

Experiments:
PKC-α [1] = biological target: T1, PKC-α (Homo sapiens, UniProt P17252); assay: PKC-α Western blot of cytosolic and particulate fractions; assay type: cell-based; conditions: CAC-1 cells; for amount of PKC-α in the cytosolic fraction / amount of PKC-α in the particulate fraction: 1 μM, 90 min
T1 construct: Cytosolic and particulate fractions were prepared from CAC-1 cells and 30 μg of protein/lane was applied to SDS/PAGE and PKC-α detected by immunoblotting; endogenous in cells
Procedure: Confluent 100 mm dishes of CAC-1 cells in the exponential phase of growth (70-80% maximum density) were treated for 90 min with media alone or 1 μM doses of all-trans or 13-cis retinoic acid, corresponding amounts of ethanol (vehcile control) or with TPA for 20 min to activate PKC-α. Cytosolic and particulate fractions of cells were isolated as described previously (Carter, et al., 1998) and changes in PKC-α were analyzed by Western blot analysis using methods described previously and a primary antibody from Transduction Laboratories (Carter, et al., 1998).

PKC-α [2] = biological target: T1, PKC-α; assay: PKC-α immunostaining (subcellular localization); assay type: cell-based; conditions: 1 μM, 90 min at 37° C.
Procedure: (§1) Cells were treated as described for the growth culve for 90 min at 37° C. Prior to MARCKS staining some cells were treated with 14 nM bisindolylmaleimide (Calbiochem, La Jolla, Calif.) for 90 min at 37° C. in order to down-regulate PKC isoforms. Cells were immunostained for PKC-α using an immunofluorescent assay kit and instructions from Research and Diagnostics (Berkley, Calif.) as described previously by Carter, et al., 1998. For MARCKS staining, cells were fixed and permeabilized as described for F-actin visualization and exposed to an anti-MARCKS mouse monoclonal IgG antibody (Upstate Biotechnology, Lake Placid, N.Y.) diluted 1:400 in 1% Bovine Serum Albumin and 0.5% nonfat dry milk (Carnation) in PBS for 1 hr at 37° C. […] Cells were rinsed, mounted and observed as described for actin staining.

CAC-1 cells [3] = assay: Retinoic acid treatment and F-actin staining with cell size measurement; conditions: 1 μM, 90 min at 37° C.; for mean cell size relative to cells only exposed to media or ethanol: 25 cells per group; for cell enlargement and actin filament reorganization (F-actin staining): CAC-1 cells at passage 12
MARCKS = MARCKS immunostaining (subcellular localization); assay type: cell-based, human; conditions: 90 min at 37° C.
Procedure: as §1

CAC-1 cells [4] = assay: Cell detachment assay; assay type: cell-based, human; conditions: 1 μM, 24 hrs at 37° C.
Procedure: CAC-1 cells were plated onto 35 mm plastic tissue culture dishes at 100,000 cells per dish and allowed to attach for 7 days. For analysis of the retinoic acid effects on cell attachment, cell detachment assays were performed using the methods of Guo, et al., 1995. Cells were exposed to media alone (controls), 1 μM 13-cis retinoic acid, […] retinoic acid or corresponding doses of ethanol alone in culture media alone (vehicle control) for 24 hrs at 37° C. prior to cell counting. The assays were performed in duplicate. Cells were rinsed twice with sterile HBSS and exposed to 0.5% trypsin/EDTA (Gibco, BRL) for 10 min with constant agitation on a rocker set at 120 rpm's. The media containing the detached cells was collected. Detached cells from each dish were counted using a hemacytometer and the mean calculated and graphed using Cricket Graph. Statistics were performed using StatMost, (DataMost Corporation, Sandy, Utah). Statistical analysis was performed using one way analysis of variance-(ANOVA).

hematopoietic cells = conditions: cited from earlier work

Molecule | amount of PKC-α in the cytosolic fraction (PKC-α [1]) | amount of PKC-α in the particulate fraction (PKC-α [1]) | PKC-α localization (PKC-α [2]) | mean cell size relative to cells only exposed to media or ethanol (CAC-1 cells [3]) | cell enlargement and actin filament reorganization (F-actin staining) (CAC-1 cells [3]) | MARCKS localization (MARCKS; 1 μM) | decrease in cell detachment compared to controls (CAC-1 cells [4]) | MARCKS localization (MARCKS; 14 nM) | PKC-α distribution between cytosolic and particulate fractions (PKC-α [1]; 100 nM TPA for 20 min) | decrease in mean F-actin content (hematopoietic cells)
CC1=C(/C=C/C(C)=C/C=C/C(C)=C/C(=O)O)C(C)(C)CCC1 [all-trans retinoic acid] | slight increase | decrease | localize exclusively to the cytoplasm occurring predominantly in perinuclear regions | twice the size | cells also enlarged and actin filaments were prominent throughout the cells | MARCKS localized to the plasma membrane | around 40% |  |  | 
bisindolylmaleimide |  |  |  |  |  |  |  | MARCKS staining was prominent in the plasma membrane |  | 
CC1=C(/C=C/C(C)=C/C=C/C(C)=C\C(=O)O)C(C)(C)CCC1 [13-cis retinoic acid] | slight increase | decrease | localize exclusively to the cytoplasm occurring predominantly in perinuclear regions | twice the size | cells enlarged and actin filaments were apparent | MARCKS localized to the plasma membrane | around 40% |  |  | 
CCCCCCCCCCCCCC(=O)O[C@@H]1[C@@H](C)[C@@]2(O)[C@@H](C=C(CO)C[C@]3(O)C(=O)C(C)=C[C@@H]23)[C@@H]2C(C)(C)[C@]12OC(C)=O [TPA, 12-O-tetradecanoylphorbol-13-acetate] |  |  |  |  |  |  |  |  | most of the PKC-α was present in the particulate fraction | 32%
